Experimental data published in ChEMBL document CHEMBL1201862, “PubChem BioAssay data set” (2004).
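Cultured in 96-well plates, cells were exposed to test compound for 48 hours across five concentrations. GI50: concentration for 50% inhibition of growth.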 Calls of active or inactive are those of the source. No stated cut-off is given here; in the data, active = GI50 up to about 1.1 µM and inactive = higher.

Legend:
Test in all cases: NCI anticancer screen, dose series, 48 h
786-0 = test system: 786-0
A549 = test system: A549
HOP-92 = test system: HOP-92
Hs-578T = test system: Hs-578T
M14 = test system: M14
MDA-MB-435 = test system: MDA-MB-435
MOLT-4 = test system: MOLT-4
Malme-3M = test system: Malme-3M
NCI-H226 = test system: NCI-H226
NCI-H460 = test system: NCI-H460
OVCAR-4 = test system: OVCAR-4
SF-268 = test system: SF-268
SF-539 = test system: SF-539
SK-MEL-5 = test system: SK-MEL-5
SN12C = test system: SN12C
SW-620 = test system: SW-620
UO-31 = test system: UO-31
SK-MEL-28 = test system: SK-MEL-28
TK-10 = test system: TK-10

Compound	GI50 (786-0)	GI50 (A549)	GI50 (HOP-92)	GI50 (Hs-578T)	GI50 (M14)	GI50 (MDA-MB-435)	GI50 (MOLT-4)	GI50 (Malme-3M)	GI50 (NCI-H226)	GI50 (NCI-H460)	GI50 (OVCAR-4)	GI50 (SF-268)	GI50 (SF-539)	GI50 (SK-MEL-5)	GI50 (SN12C)	GI50 (SW-620)	GI50 (UO-31)	GI50 (SK-MEL-28)	GI50 (TK-10)
CCOC(=O)C(Cc1ccc(N(CCCl)CCCl)cc1)NC(=O)C(Cc1ccccc1)NC(C)=O (stereo unspecified)	0.184 µM (active)	> 0.569 µM (active)	0.621 µM (active)	> 0.368 µM (active)	0.141 µM (active)	0.264 µM (active)	0.0581 µM (active)	0.0887 µM (active)	> 1 µM (active)	0.222 µM (active)	0.0159 µM (active)	0.126 µM (active)	0.175 µM (active)	0.248 µM (active)	0.155 µM (active)	0.236 µM (active)	0.106 µM (active)		
CN(C)Cc1cc(C(=O)/C=C/c2ccccc2Cl)cc(CN(C)C)c1O	7.36 µM (inactive)	14.9 µM (inactive)	18.1 µM (inactive)	18.3 µM (inactive)	11.2 µM (inactive)	13.5 µM (inactive)	10.9 µM (inactive)	11 µM (inactive)	24.3 µM (inactive)	4.6 µM (inactive)		15.9 µM (inactive)	15.5 µM (inactive)	11.8 µM (inactive)	9.16 µM (inactive)	4.86 µM (inactive)	10.6 µM (inactive)	14.7 µM (inactive)	19.7 µM (inactive)
COc1ccc(/C(=N/OCCCC(=O)O)c2cccs2)cc1	> 100 µM (inactive)	> 100 µM (inactive)	> 100 µM (inactive)	> 100 µM (inactive)		> 100 µM (inactive)	> 100 µM (inactive)	> 100 µM (inactive)	> 100 µM (inactive)	> 100 µM (inactive)	> 100 µM (inactive)	> 100 µM (inactive)	> 100 µM (inactive)	> 100 µM (inactive)	> 100 µM (inactive)	> 100 µM (inactive)	> 100 µM (inactive)		> 100 µM (inactive)
O=C1C(Cl)C(c2cccc(Br)c2)N1c1c(O)c(Cl)cc(Br)c1Cl (stereo unspecified)	23.4 µM (inactive)	17.3 µM (inactive)	6.93 µM (inactive)	9.46 µM (inactive)	13.9 µM (inactive)	15 µM (inactive)	13 µM (inactive)	19.1 µM (inactive)	18.2 µM (inactive)	14.1 µM (inactive)	12.3 µM (inactive)	14.8 µM (inactive)	15.6 µM (inactive)	14.2 µM (inactive)	14.7 µM (inactive)	19.3 µM (inactive)	16.8 µM (inactive)		19 µM (inactive)
O=C(O)c1cc2ccccc2c(Cc2c(O)c(C(=O)O)cc3ccccc23)c1O [PAMOIC ACID]	> 100 µM (inactive)	> 100 µM (inactive)	> 100 µM (inactive)	> 100 µM (inactive)	> 100 µM (inactive)	> 100 µM (inactive)	> 100 µM (inactive)	> 100 µM (inactive)	> 100 µM (inactive)	> 100 µM (inactive)	> 100 µM (inactive)	> 100 µM (inactive)		> 100 µM (inactive)	> 100 µM (inactive)	> 100 µM (inactive)	> 100 µM (inactive)	> 100 µM (inactive)	> 100 µM (inactive)
C=C1C(=O)OC2C1CCC(C)C1(O)C=CC(=O)C21C (stereo unspecified)	6.11 µM (inactive)	> 10 µM (inactive)	3.33 µM (inactive)	> 10 µM (inactive)		> 10 µM (inactive)	3.1 µM (inactive)	> 10 µM (inactive)	> 10 µM (inactive)	> 10 µM (inactive)	7.6 µM (inactive)	> 10 µM (inactive)	> 10 µM (inactive)	> 10 µM (inactive)	> 10 µM (inactive)	3.44 µM (inactive)	3.24 µM (inactive)	5.92 µM (inactive)	6.75 µM (inactive)
